Values of other authors as cited in US7579360B2, “Triazolopyridine 11-beta hydroxysteroid dehydrogenase type I inhibitors” (Bristol-Myers Squibb Company, priority 2005, dated 2009).

Target: T1, 11beta-HSD1 (Homo sapiens, UniProt P28845)
T1 construct: host or cells: patients with type 2 diabetes (liver, in vivo)
Details: mildly overweight individuals with type 2 diabetes, seven days, versus placebo

T1 sequence (P28845 whole entry): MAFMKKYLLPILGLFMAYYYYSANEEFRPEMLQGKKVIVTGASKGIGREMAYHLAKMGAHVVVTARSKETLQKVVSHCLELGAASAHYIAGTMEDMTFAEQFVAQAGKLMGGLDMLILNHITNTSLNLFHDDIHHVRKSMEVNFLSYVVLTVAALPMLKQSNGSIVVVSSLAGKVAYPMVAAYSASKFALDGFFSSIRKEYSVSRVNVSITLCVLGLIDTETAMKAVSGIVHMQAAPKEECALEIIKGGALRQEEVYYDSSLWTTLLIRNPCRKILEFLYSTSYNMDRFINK

In the case of CC1(C)[C@@H](OC(=O)CCC(=O)O)CC[C@]2(C)[C@H]3C(=O)C=C4[C@@H]5C[C@@](C)(C(=O)O)CC[C@]5(C)CC[C@@]4(C)[C@]3(C)CC[C@@H]12 [carbenoxolone], the hepatic glucose production is listed as “decrease”.
